Experimental data taken from patent US5026704A, “Benzo[f]quinoxaline-2,3(1H,4H)-diones” (Novo Nordisk A/S, priority 1987, dated 1991).
Converted amounts (≈) assume the structure as drawn.

Tests used:
[1] = target: quisqualate type receptors; test: ^3 H-AMPA binding: displacement of ^3 H-AMPA from quisqualate type receptors in cerebral cortical membrane homogenate; set-up: species or system rat; conditions: displacement of 50% of specific ^3 H-AMPA binding; 5 nM ^3 H-AMPA, 0° C., 30 min, pH 7.1
Protocol: The pharmacological properties of the compounds of the present invention can be illustrated by determining their capability for displacing radioactively labelled 2-amino-3-hydroxy-5-methyl-4-isoxazolepropionic acid (AMPA) from the quisqualate type receptors.
The displacement activity of the compounds may be shown by determining the IC50 value which represents the concentration (μg/ml) which causes a displacement of 50% of the specific binding of ^3 H-AMPA.
500 μl of thawed rat cerebral cortical membrane homogenate in Tris-HCl (30 mM), CaCl2 (2.5 mM) and KSCN (100 mM) pH 7.1 were incubated at 0° C. for 30 min. with 25 μl ^3 H-AMPA (5 nM final concentration) and the test compound and buffer. Nonspecific binding was determined by incubation with L-glutamic acid (600 μM final concentration). The binding reaction was terminated by adding 5 ml of ice-cold buffer followed by filtration through Whatman GF/C glass fibre filters and 2×5 ml wash with ice-cold buffer. Bound radioactivity was measured by scintillation counting. IC50 was determined by Hill analysis of at least four concentrations of test compound.

[2] = test system: quisqualic acid stimulated ^3 H-GABA-efflux from cultured cortical neurones; test: Antagonism of quisqualic acid stimulated ^3 H-GABA efflux from cultured cortical neurones (release experiments); assay type: cell-based, mouse; conditions: Rattus norvegicus, Cortical neurone; concentration which reduces the rate of quisqualic acid stimulated ^3 H-GABA efflux by 50%; 37° C., pH 7.4

IC50 [1]	EC50 [2]	Compound
0.69 mg/L (≈ 2.13 µM)		O=c1[nH]c2cc([N+](=O)[O-])c(Cl)cc2n(C2CCCCC2)c1=O [Compound 16, 1-Cyclohexyl-6-nitro-7-chlorquinoxaline-2,3(1H,4H)-dione]
0.42 mg/L (≈ 1.86 µM)	2.1 mg/L (≈ 9.28 µM)	Cn1c(=O)c(=O)[nH]c2c3ccccc3ccc21 [Compound 13, 4-Methylbenzo[f]quinoxaline-2,3(1H,4H)-dione]
0.61 mg/L (≈ 2.07 µM)	> 4 mg/L	O=c1[nH]c2c3ccccc3ccc2n(C2CCCCC2)c1=O [Compound 27k, 4-Cyclohexylbenzo[f]quinoxaline-2,3(1H,4H)-dione]
0.96 mg/L (≈ 4.34 µM)	2.1 mg/L (≈ 9.49 µM)	Cn1c(=O)c(=O)[nH]c2cc([N+](=O)[O-])ccc21 [Compound 7, 1-Methyl-6-nitroquinoxaline-2,3(1H,4H)-dione]
